# Laboratory results taken from patent publication US11332503B2, “Peptides for treatment and prevention of hyperglycaemia” (UNIVERSITE DE STRASBOURG, priority 2017, dated 2022).
# System: human adipocytes
# Experiment: Glucose entry in human adipocytes after native or stapled peptide treatment (FIG. 4D-E)
# Assay type: cell-based
# Settings: native peptide, absence of insulin
# Description: FIG. 4: In vitro characterization of two peptides for their glucose absorption triggering capacity. • (A) Representative picture depicting the cellular entry assessment of the mixture of FAM-labelled stapled peptides A (SEQ ID No 9) and B (SEQ ID No 11) in human adipocytes. DIC: Differential interference contrast mode for living cell acquisition in left panel. In right panel, fluorescent detection of the FAM-labelled peptide with the labelled plasma membrane (PM). • (B) 3D images of the cellular uptake of PATAD peptides identified in FIG. 3; either peptide A (left panel) or peptide B (right panel) treated adipocyte showing the spots inside the peptide inside the adipocyte. • (C) Photographs showing absorption of 2-NBDG in absence of INS in adipocytes following treatment with a combination of the stapled peptides A and B. • (D) Quantification of intracellular glucose analogue 2-NB in absence of INS in adipocytes following the indicated peptide treatment (n=8 per group). • (E) Quantification of intracellular glucose analogue 2-NB in presence of INS in adipocytes following the indicated peptide treatment (n=8 per group). […]
# Mature adipocytes were cultured in 96 well plate. […] 24 hours later, the glucose absorption capacity if the treated cells were assessed using the Glucose Uptake Colorimetric Assay kit from Bio Vision (Catalog #: K676-100). […]
sequence,measurement,value
"SICKGLMTKHPAKRLGCGPEG (native or hydrocarbon-stapled; listed as Homo sapiens) [peptide B, PATAD peptide from human αPKC, tested native and stapled]",entry of glucose into the adipocyte,significant entry of glucose
